# Assay results taken from patent US20190307843A1, “SINGLE DOSE METHODS FOR PREVENTING AND TREATING FUNGAL INFECTIONS” (Cidara Therapeutics, Inc., priority 2016, published 2019).
# Read-outs that look alike come from different tables or passages of the source. Starred links: 1 amine or outer side, 2 acyl side, 3 side chain; linkers in the order of their positions; H or OH if unused. Positions of bridges follow the written chain, without caps; N, C: chain ends. Non-standard residues stand in square brackets, D forms with d. Residues, ends and D or L forms follow the SMILES beside them. *: point of attachment. Orn(4R-OH,5R-OCH2CH2NMe3+) = C[N+](C)(C)CCO[C@@H](N[*:3])[C@H](O)C[C@H](N[*:1])C(=O)[*:2]; pTerphenylCO(4''-OnC5H11) = CCCCCOc1ccc(-c2ccc(-c3ccc(C(=O)*)cc3)cc2)cc1; hTyr(3S-OH,4S-OH) = N[C@H](C(=O)O)[C@H](O)[C@@H](O)c1ccc(O)cc1; Pro(3S-OH,4S-Me) = C[C@H]1CN[C@H](C(=O)O)[C@H]1O; Hyp = O=C(O)[C@@H]1C[C@@H](O)CN1
# Tests used:
# Candida auris strains = assay: Candida auris antifungal susceptibility testing (CLSI M27-A3), 38 strains; type: cell-based; settings: for MIC: Candidozyma auris, 48 h, read-out: MIC
# C. albicans strain 529L = assay: Rat model of vulvovaginal candidiasis, vaginal lavage and tissue burden; type: in vivo, Candida albicans
# A. fumigatus AF293 [1] = assay: Pulmonary aspergillosis, prophylaxis, neutropenic ICR mice (Examples 17, 18), survival; type: in vivo, Aspergillus fumigatus
# Protocol: Intranasal infection with A. fumigatus AF293 (10^5 CFU/mouse) on Day 0. Prophylaxis CD101 as a single dose (IP; 5, 10, 20 mg/kg) or posaconazole (PO; 2 and 10 mg/kg) 1 day prior to infection. Survival monitored for 10 days.
# Intranasal challenge with A. fumigatus AF293 (10^5 CFU/mouse) was initiated on Day 0 and prophylaxis with CD101 as a single dose (IP; 5, 10, 20 mg/kg) or posaconazole (PO; 2 and 10 mg/kg) was started 1 day prior to infection. Survival was monitored for 10 days.
# A. fumigatus AF293 [2] = assay: Murine model of pulmonary aspergillosis (Example 19), terminal lung burden; type: in vivo, Aspergillus fumigatus
# Protocol: A secondary endpoint for the study was terminal lung tissue burden. Immediately following confirmation of death, carcasses were frozen at −20° C. prior to tissue dissection and processing. The frozen carcasses were thawed at room temperature, the lungs removed and placed into pre-weighed bead-beating tubes containing 2 mL of PBS and subjected to mechanical disruption. Organ homogenates were diluted further in PBS and quantitatively cultured for A. fumigatus onto SABC and incubated at 30° C. for 24-48 hours.
# 2. Lung tissue burden data were analysed using the non-parametric Kruskal-Wallis test and if this was statistically significant all pairwise comparisons were analyzed (Conover-Inman).
# [3] = 5 mg/kg SC Dosed Once, lavage Day 1 post infection, pre-treatment
# [4] = 5 mg/kg SC Dosed Once, lavage Day 2 post infection
# [5] = 5 mg/kg SC Dosed Once, lavage Day 3 post infection
# [6] = 5 mg/kg SC Dosed Once, lavage Day 5 post infection
# [7] = 5 mg/kg SC Dosed Once, lavage Day 7 post infection
# [8] = 5 mg/kg SC Dosed Once, lavage Day 9 post infection
# [9] = 5 mg/kg SC Dosed Once, terminal vaginal tissue Day +9 post infection
# [10] = 5 mg/kg SC Dosed Twice, lavage Day 1 post infection, pre-treatment
# [11] = 5 mg/kg SC Dosed Twice, lavage Day 2 post infection
# [12] = 5 mg/kg SC Dosed Twice, lavage Day 3 post infection
# [13] = 5 mg/kg SC Dosed Twice, lavage Day 5 post infection
# [14] = 5 mg/kg SC Dosed Twice, lavage Day 7 post infection
# [15] = 5 mg/kg SC Dosed Twice, lavage Day 9 post infection
# [16] = 5 mg/kg SC Dosed Twice, terminal vaginal tissue Day +9 post infection
# [17] = 10 mg/kg SC Dosed Once, lavage Day 1 post infection, pre-treatment
# [18] = 10 mg/kg SC Dosed Once, lavage Day 2 post infection
# [19] = 10 mg/kg SC Dosed Once, lavage Day 3 post infection
# [20] = 10 mg/kg SC Dosed Once, lavage Day 5 post infection
# [21] = 10 mg/kg SC Dosed Once, lavage Day 7 post infection
# [22] = 10 mg/kg SC Dosed Once, lavage Day 9 post infection
# [23] = 10 mg/kg SC Dosed Once, terminal vaginal tissue Day +9 post infection
structure (smiles),measurement,setting,value
"CCCCCOc1ccc(-c2ccc(-c3ccc(C(=O)N[C@H]4C[C@@H](O)[C@@H](OCC[N+](C)(C)C)NC(=O)[C@@H]5[C@@H](O)[C@@H](C)CN5C(=O)[C@H]([C@@H](C)O)NC(=O)[C@H]([C@H](O)[C@@H](O)c5ccc(O)cc5)NC(=O)[C@@H]5C[C@@H](O)CN5C(=O)[C@H]([C@@H](C)O)NC4=O)cc3)cc2)cc1 [CD101] ({pTerphenylCO(4''-OnC5H11)}-[Orn(4R-OH,5R-OCH2CH2NMe3+)]T[Hyp][hTyr(3S-OH,4S-OH)]T[Pro(3S-OH,4S-Me)]; lactam 1-C)",MIC,Candida auris strains; strain 37 VCPI 74/P/15,0.25 µg/mL
same,MIC,Candida auris strains; strain 38 VCPI 213/P/15,0.25 µg/mL
same,number of resistant isolates,Candida auris strains; of 38 C. auris isolates,4
same,Group Geometric mean,C. albicans strain 529L; [3],9.11 × 10^2 CFU/mL
same,Log Group Geometric mean,C. albicans strain 529L; [3],2.96 CFU/mL
same,Log reduction from vehicle control,C. albicans strain 529L; [3],−0.52 CFU/mL
same,Group Geometric mean,C. albicans strain 529L; [4],3.34 × 10^2 CFU/mL
same,Log Group Geometric mean,C. albicans strain 529L; [4],2.52 CFU/mL
same,Log reduction from vehicle control,C. albicans strain 529L; [4],1.17 CFU/mL
same,Group Geometric mean,C. albicans strain 529L; [5],1.21 × 10^2 CFU/mL
same,Log Group Geometric mean,C. albicans strain 529L; [5],2.08 CFU/mL
same,Log reduction from vehicle control,C. albicans strain 529L; [5],1.49 CFU/mL
same,Group Geometric mean,C. albicans strain 529L; [6],1.70 × 10^3 CFU/mL
same,Log Group Geometric mean,C. albicans strain 529L; [6],3.23 CFU/mL
same,Log reduction from vehicle control,C. albicans strain 529L; [6],0.99 CFU/mL
same,Group Geometric mean,C. albicans strain 529L; [7],4.56 × 10^3 CFU/mL
same,Log Group Geometric mean,C. albicans strain 529L; [7],3.66 CFU/mL
same,Log reduction from vehicle control,C. albicans strain 529L; [7],0.52 CFU/mL
same,Group Geometric mean,C. albicans strain 529L; [8],4.58 × 10^3 CFU/mL
same,Log Group Geometric mean,C. albicans strain 529L; [8],3.66 CFU/mL
same,Log reduction from vehicle control,C. albicans strain 529L; [8],0.64 CFU/mL
same,Group Geometric mean,C. albicans strain 529L; [9],1.37 × 10^5 CFU/g
same,Log Group Geometric mean,C. albicans strain 529L; [9],5.14 CFU/g
same,Group Geometric mean,C. albicans strain 529L; [10],1.83 × 10^3 CFU/mL
same,Log Group Geometric mean,C. albicans strain 529L; [10],3.26 CFU/mL
same,Log reduction from vehicle control,C. albicans strain 529L; [10],−0.83 CFU/mL
same,Group Geometric mean,C. albicans strain 529L; [11],2.56 × 10^2 CFU/mL
same,Log Group Geometric mean,C. albicans strain 529L; [11],2.41 CFU/mL
same,Log reduction from vehicle control,C. albicans strain 529L; [11],1.29 CFU/mL
same,Group Geometric mean,C. albicans strain 529L; [12],1.95 × 10^2 CFU/mL
same,Log Group Geometric mean,C. albicans strain 529L; [12],2.29 CFU/mL
same,Log reduction from vehicle control,C. albicans strain 529L; [12],1.28 CFU/mL
same,Group Geometric mean,C. albicans strain 529L; [13],1.73 × 10^3 CFU/mL
same,Log Group Geometric mean,C. albicans strain 529L; [13],3.24 CFU/mL
same,Log reduction from vehicle control,C. albicans strain 529L; [13],0.98 CFU/mL
same,Group Geometric mean,C. albicans strain 529L; [14],6.47 × 10^2 CFU/mL
same,Log Group Geometric mean,C. albicans strain 529L; [14],2.81 CFU/mL
same,Log reduction from vehicle control,C. albicans strain 529L; [14],1.37 CFU/mL
same,Group Geometric mean,C. albicans strain 529L; [15],1.28 × 10^3 CFU/mL
same,Log Group Geometric mean,C. albicans strain 529L; [15],3.11 CFU/mL
same,Log reduction from vehicle control,C. albicans strain 529L; [15],1.19 CFU/mL
same,Group Geometric mean,C. albicans strain 529L; [16],4.00 × 10^4 CFU/g
same,Log Group Geometric mean,C. albicans strain 529L; [16],4.60 CFU/g
same,Group Geometric mean,C. albicans strain 529L; [17],3.68 × 10^2 CFU/mL
same,Log Group Geometric mean,C. albicans strain 529L; [17],2.57 CFU/mL
same,Log reduction from vehicle control,C. albicans strain 529L; [17],−0.13 CFU/mL
same,Group Geometric mean,C. albicans strain 529L; [18],2.48 × 10^2 CFU/mL
same,Log Group Geometric mean,C. albicans strain 529L; [18],2.39 CFU/mL
same,Log reduction from vehicle control,C. albicans strain 529L; [18],1.30 CFU/mL
same,Group Geometric mean,C. albicans strain 529L; [19],23.2 CFU/mL
same,Log Group Geometric mean,C. albicans strain 529L; [19],1.37 CFU/mL
same,Log reduction from vehicle control,C. albicans strain 529L; [19],2.21 CFU/mL
same,Group Geometric mean,C. albicans strain 529L; [20],1.73 CFU/mL
same,Log Group Geometric mean,C. albicans strain 529L; [20],0.24 CFU/mL
same,Group Geometric mean,C. albicans strain 529L; [21],2.59 CFU/mL
same,Log Group Geometric mean,C. albicans strain 529L; [21],0.41 CFU/mL
same,Log reduction from vehicle control,C. albicans strain 529L; [21],3.77 CFU/mL
same,Group Geometric mean,C. albicans strain 529L; [22],2.75 CFU/mL
same,Log Group Geometric mean,C. albicans strain 529L; [22],0.44 CFU/mL
same,Log reduction from vehicle control,C. albicans strain 529L; [22],3.86 CFU/mL
same,Group Geometric mean,C. albicans strain 529L; [23],5.52 CFU/g
same,Log Group Geometric mean,C. albicans strain 529L; [23],0.74 CFU/g
same,Log reduction from vehicle control,C. albicans strain 529L; [23],4.75 CFU/g
same,burden reduction,"C. albicans strain 529L; CD101 5 mg/kg once or twice, lavage Day 5 post infection",about 1 Log10 CFU/m
same,rats having burden below the limit of detection,"C. albicans strain 529L; CD101 10 mg/kg dosed once, lavage Day 5 post infection",5/6
same,rats with burdens below the levels of detection,"C. albicans strain 529L; CD101 10 mg/kg dosed once, terminal vaginal tissue Day 9",5/6
same,reduction in burden,"C. albicans strain 529L; all doses of CD101, lavage Day 2 post infection",about 1.3 Log10 CFU/mL
same,survival rate,"A. fumigatus AF293 [1]; CD101 20 mg/kg IP single dose 1 day prior to infection, 10 days",30%
same,survival,"A. fumigatus AF293 [1]; single CD101 dose (IP; 5, 10, 20 mg/kg) one day prior to infection",dose-dependent increase in survival rate
same,Group Geometric mean (lung burden),A. fumigatus AF293 [2]; CD101 20 mg/kg IP Day −1,4.37 × 10^3 CFU/g
same,Log10 Group Geometric mean (lung burden),A. fumigatus AF293 [2]; CD101 20 mg/kg IP Day −1,3.64 CFU/g
same,Log10 reduction from vehicle control,A. fumigatus AF293 [2]; CD101 20 mg/kg IP Day −1,0.53 CFU/g
same,Group Geometric mean (lung burden),A. fumigatus AF293 [2]; CD101 60 mg/kg IP Day −1,1.38 × 10^4 CFU/g
same,Log10 Group Geometric mean (lung burden),A. fumigatus AF293 [2]; CD101 60 mg/kg IP Day −1,4.14 CFU/g
same,Log10 reduction from vehicle control,A. fumigatus AF293 [2]; CD101 60 mg/kg IP Day −1,0.03 CFU/g
